The values that follow come from ChEMBL document CHEMBL1140704, “Further structure-activity relationships study of hybrid 7-{[2-(4-phenylpiperazin-1-yl)ethyl]propylamino}-5,6,7,8-tetrahydronaphthalen-2-ol analogues: identification of a high-affinity D3-preferring agonist with potent in vivo activity with long duration of action” (J Med Chem, 2008).

Active and inactive are the calls of the source. No cut-off for these calls is given here.

By Ki is commonly meant a measure of affinity in units of concentration, obtained from inhibition or displacement. Read a low Ki as tighter binding. As usually defined, the EC50 is the concentration giving half of the maximal effect.

The species named for experiment [1] is Homo sapiens. In words: Selectivity for human D3 receptor over human D2L receptor.
Experiment [2] deals with T1, D(2) dopamine receptor (Homo sapiens, UniProt P14416). In words: biochemical.
Description: Displacement of [3H]spiperone from human cloned dopamine D2L receptor expressed in HEK293 cells
The target of experiment [3] is T2, D(3) dopamine receptor (Homo sapiens, UniProt P35462). Briefly: biochemical.
Description: Displacement of [3H]spiperone from human cloned dopamine D3 receptor expressed in HEK293 cells
In experiment [4] the target is T1, D(2) dopamine receptor. In words: Agonist activity at human cloned dopamine D2L receptor expressed in CHO cells assessed as stimulation of [35S]GTPgammaS binding. It counts as functional, cell-based. A general note: Binding of GTPγS marks nucleotide exchange on a G protein.
Experiment [5] concerns the target T2, D(3) dopamine receptor.
Description: Agonist activity at human cloned dopamine D3 receptor expressed in AtT-20 cells assessed as stimulation of [35S]GTP-gamma-S binding
Experiment [6] relates to Rattus norvegicus. In words: Effect on rotational activity in 6-OH-DA-Lesioned rat assessed as number of rotations at 2.51 mg/kg, ip. It counts as functional, organism-based. Set-up: dose 2.51 mg/kg.
The test system of experiment [7] is Rattus norvegicus. In words: Effect on rotational activity in 6-OH-DA-Lesioned rat assessed as number of rotations at 2.87 mg/kg, ip after 12 hrs. Particulars: route intraperitoneal. The class given is functional.
The test system of experiment [8] is Rattus norvegicus. Briefly: Effect on rotational activity in 6-OH-DA-Lesioned rat assessed as number of rotations at 0.53 mg/kg, ip after 9 hrs. The class given is functional. Particulars: route intraperitoneal.

T2 sequence (P35462 whole entry): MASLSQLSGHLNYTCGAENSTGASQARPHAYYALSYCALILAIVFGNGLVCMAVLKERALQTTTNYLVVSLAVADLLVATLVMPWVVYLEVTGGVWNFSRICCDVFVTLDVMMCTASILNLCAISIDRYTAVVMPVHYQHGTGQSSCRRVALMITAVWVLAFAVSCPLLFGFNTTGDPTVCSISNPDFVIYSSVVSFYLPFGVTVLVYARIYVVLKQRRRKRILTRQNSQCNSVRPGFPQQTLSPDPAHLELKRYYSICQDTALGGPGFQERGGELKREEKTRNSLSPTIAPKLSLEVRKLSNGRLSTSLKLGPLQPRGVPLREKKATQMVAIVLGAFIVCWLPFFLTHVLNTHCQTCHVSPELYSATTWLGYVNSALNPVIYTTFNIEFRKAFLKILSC
T1 sequence (P14416 whole entry): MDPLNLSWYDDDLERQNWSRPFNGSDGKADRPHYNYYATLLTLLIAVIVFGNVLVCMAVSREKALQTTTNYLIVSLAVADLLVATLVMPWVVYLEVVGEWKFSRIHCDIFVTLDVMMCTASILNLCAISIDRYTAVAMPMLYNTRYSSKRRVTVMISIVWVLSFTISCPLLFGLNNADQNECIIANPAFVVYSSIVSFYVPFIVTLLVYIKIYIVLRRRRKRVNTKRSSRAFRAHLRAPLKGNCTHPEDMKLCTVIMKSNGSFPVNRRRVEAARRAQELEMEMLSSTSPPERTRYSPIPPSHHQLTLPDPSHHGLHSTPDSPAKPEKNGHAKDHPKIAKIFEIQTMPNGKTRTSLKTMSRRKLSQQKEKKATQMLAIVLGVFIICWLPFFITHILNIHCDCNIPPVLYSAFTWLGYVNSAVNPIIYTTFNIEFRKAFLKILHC

As for `CCCN(CCN1CCN(c2ccccc2)CC1)C1CCc2cc(O)ccc2C1` (stereo not given), in experiment [1], the Ratio Ki is 57.9. For the same molecule, the Ki in experiment [2] was found to be 649 nM; in experiment [3], 11.2 nM.
The matching figures for `CCCN(CCN1CCN(c2ccccc2)CC1)C1CCc2cc(O)c(O)cc2C1` (stereo not given): 50.6, 70.3 nM and 1.39 nM.
`CCCN(CCN1CCN(c2ccccc2OC)CC1)C1CCc2c(O)cccc2C1` (racemic) [listing 1 of 2 here]: the Ratio Ki in experiment [1] came to 12.8.
As to `CCCN(CCCCN1CCN(c2ccccc2)CC1)C1CCc2cc(O)c(O)cc2C1` (stereo not given), the Ratio Ki in experiment [1] turned out to be 7.51. Moreover, the inhibition constant Ki was 21.7 nM in experiment [2] and 2.89 nM in experiment [3].
`CCCN(CCN1CCN(c2ccccc2OC)CC1)C1CCc2c(O)cccc2C1` (single isomer, unassigned; (-)) [listing 1 of 2 here]: the EC50 in experiment [4] was determined as 1.56 nM; in experiment [5], 0.08 nM. Besides, the inhibition constant Ki in experiment [2] is 9.56 nM; in experiment [3], 0.46 nM.
As for `CCCN(CCN1CCN(c2ccccc2)CC1)C1CCc2ccc3c(c2C1)CC(=O)N3` (stereo not given), the Ratio Ki in experiment [1] is 8.27. The values for the Ki in experiment [2] and in experiment [3] were 90.6 nM and 10.9 nM, respectively.
For the molecule `CCCN(CCCCN1CCN(c2ccccc2)CC1)C1CCc2ccc(O)cc2C1` (stereo in doubt; (-)-13) [listing 1 of 2 here], the Ratio Ki in experiment [1] is 15.9.
The same measure, in the same setting: under `CCCN(CCCCN1CCN(c2ccccc2)CC1)C1CCc2ccc(O)cc2C1` (stereo in doubt; (+)-13) [listing 1 of 2 here] stands 25.8.
Regarding `CCCN(CCN1CCN(c2ccccc2)CC1)C1CCc2ccc(N)cc2C1` (stereo not given), the inhibition constant Ki in experiment [2] is 638 nM; in experiment [3], 22.2 nM.
The matching figures for `CCCN(CCN1CCN(c2ccccc2OC)CC1)C1CCc2c(O)cccc2C1` (single isomer, unassigned; (+)) [listing 1 of 2 here]: 88.7 nM and 18.8 nM.
For the molecule `CCCN(CCN1CCN(c2ccccc2OC)CC1)C1CCc2c(O)cccc2C1` (single isomer, unassigned; (-)) [listing 2 of 2 here], in experiment [1], the Ratio EC50 amounted to 19.4 and the Ratio Ki turned out to be 20.9.
Turning to `CCCN(CCN1CCN(c2ccccc2)CC1)C1CCc2ccc(O)cc2C1` (stereo not given), the Ratio EC50 in experiment [1] worked out at 17.6. The Ratio Ki in experiment [1] is 91. The values for the EC50 in experiment [4] and in experiment [5] were 12.2 nM and 0.69 nM, respectively. Moreover, the result in experiment [6] was Active. Further, the inhibition constant Ki in experiment [2] worked out at 142 nM; in experiment [3], 1.56 nM.
`CCCN(CCCCN1CCN(c2ccccc2)CC1)C1CCc2ccc(O)cc2C1` (stereo in doubt; (-)-13) [listing 2 of 2 here]: the Ki in experiment [2] was determined as 19.4 nM; in experiment [3], 1.22 nM.
Consider `Oc1ccc2c(c1)CC(N(CCc1cccs1)CCN1CCN(c3ccccc3)CC1)CC2` (stereo not given), for which, in experiment [1], the Ratio Ki came to 1.03. Further, the Ki in experiment [2] was determined as 24.6 nM; in experiment [3] it was 23.9 nM.
As to `CCCN(CCN1CCN(c2ccccc2)CC1)C1CCc2c(O)cccc2C1` (stereo in doubt; (-)-25), the Activity in experiment [7] is reported as 4319; in experiment [8], 3609.
Consider `CCCN(CCN1CCN(c2ccccc2OC)CC1)C1CCc2c(O)cccc2C1` (racemic) [listing 2 of 2 here], for which the Ki in experiment [2] was determined as 35.8 nM; in experiment [3] it was 2.8 nM.
On to `CCCN(CCCCN1CCN(c2ccccc2)CC1)C1CCc2ccc(O)cc2C1` (stereo in doubt; (+)-13) [listing 2 of 2 here], for which the figures for the inhibition constant (Ki) in experiment [2] and in experiment [3] were 19.3 nM and 0.74 nM, respectively.
As for `CCCN(CCCN1CCN(c2ccccc2)CC1)C1CCc2ccc(O)cc2C1` (stereo not given), the Ratio Ki in experiment [1] came out at 16.2. Moreover, the Ki in experiment [2] was 167 nM; in experiment [3] it was 10.3 nM.
For `CCCN(CCN1CCN(c2cccc(Cl)c2Cl)CC1)C1CCc2c(O)cccc2C1` (racemic) the same measures were 32.2, 14.6 nM and 0.45 nM.
As to `CCCN(CCN1CCN(c2ccccc2OC)CC1)C1CCc2c(O)cccc2C1` (single isomer, unassigned; (+)) [listing 2 of 2 here], the Ratio Ki in experiment [1] worked out at 4.72.
